Legend:
S. pneumoniae D39V [1] = assay: fitness (endpoint OD595 vs no drug) (fraction); higher = more growth
Procedure, shortened: (§1)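 In 384-well plates at 37 °C, cultures began at OD595 0.01 in 30 µl, with 55 µl used for S. pneumoniae. OD595 readings every 30 min for 14 h were corrected by the first reading. Fitness divides the stationary-phase transition optical density by the robust mean of no-drug control wells. The result is capped at 1.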

S. aureus DSM 20231 [2] = assay: as above
Procedure, shortened: as §1

S. aureus Newman [3] = assay: as above
Procedure, shortened: as §1

S. pneumoniae D39V [4] = assay: Bliss interaction score (quartile over a dose matrix) (fitness difference); higher = more antagonism (negative = synergy)
Procedure, shortened: (§2)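 Growth was read as OD595 when cultures entered stationary phase, and each value was divided by the plate's robust no-drug mean and capped at 1. This normalised ratio is the fitness value, and fitness for each single drug came from the combination data. The Bliss score subtracts the expected fitness, taken as the product, from the observed fitness and is given as quartiles across technical, biological and donor/recipient replicates.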

S. aureus DSM 20231 [5] = assay: as above
Procedure, shortened: as §2

B. subtilis 168 = assay: as above
Procedure, shortened: as §2

S. aureus Newman [6] = assay: as above
Procedure, shortened: as §2
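For Bliss interaction score (quartile over a dose matrix) in this document: first quartile when negative (synergy) and third quartile when positive (antagonism).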
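For fitness (endpoint OD595 vs no drug) in this document: OD595 on entry to stationary phase over no-drug wells; at most 1.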

C[n+]1ccc(-c2cc[n+](C)cc2)cc1 [Paraquat] + CN[C@H](CC(C)C)C(=O)N[C@H]1C(=O)N[C@@H](CC(N)=O)C(=O)N[C@H]2C(=O)N[C@H]3C(=O)N[C@H](C(=O)N[C@H](C(=O)O)c4cc(O)cc(O)c4-c4cc3ccc4O)[C@H](O)c3ccc(c(Cl)c3)Oc3cc2cc(c3O[C@@H]2O[C@H](CO)[C@@H](O)[C@H](O)[C@H]2O[C@H]2C[C@](C)(N)[C@H](O)[C@H](C)O2)Oc2ccc(cc2Cl)[C@H]1O [Vancomycin]
Conditions | fitness
S. aureus DSM 20231 [2], first compound 1.25 µg/mL, partner 0.1875 µg/mL | 0.908
S. aureus DSM 20231 [2], first compound 1.25 µg/mL, partner 0.375 µg/mL | 0.956
S. aureus DSM 20231 [2], first compound 1.25 µg/mL, partner 0.75 µg/mL | 0.963
S. aureus DSM 20231 [2], first compound 2.5 µg/mL, partner 0.1875 µg/mL | 0.87
S. aureus DSM 20231 [2], first compound 2.5 µg/mL, partner 0.375 µg/mL | 0.986
S. aureus DSM 20231 [2], first compound 2.5 µg/mL, partner 0.75 µg/mL | 0.969
S. aureus DSM 20231 [2], first compound 5 µg/mL, partner 0.1875 µg/mL | 0.861
S. aureus DSM 20231 [2], first compound 5 µg/mL, partner 0.375 µg/mL | ≥ 1
S. aureus DSM 20231 [2], first compound 5 µg/mL, partner 0.75 µg/mL | 0.964
S. aureus Newman [3], first compound 1.25 µg/mL, partner 0.1875 µg/mL | 0.933
S. aureus Newman [3], first compound 1.25 µg/mL, partner 0.375 µg/mL | 0.898
S. aureus Newman [3], first compound 2.5 µg/mL, partner 0.1875 µg/mL | 0.911
S. aureus Newman [3], first compound 2.5 µg/mL, partner 0.375 µg/mL | 0.898
S. aureus Newman [3], first compound 5 µg/mL, partner 0.1875 µg/mL | 0.933
S. aureus Newman [3], first compound 5 µg/mL, partner 0.375 µg/mL | 0.917
S. aureus Newman [3], first compound 5 µg/mL, partner 0.75 µg/mL | 0.935
S. pneumoniae D39V [1], first compound 1.5 µg/mL, partner 0.03125 µg/mL | 0.998
S. pneumoniae D39V [1], first compound 1.5 µg/mL, partner 0.0625 µg/mL | 0.984
S. pneumoniae D39V [1], first compound 1.5 µg/mL, partner 0.125 µg/mL | 0.855
S. pneumoniae D39V [1], first compound 3 µg/mL, partner 0.03125 µg/mL | 1
S. pneumoniae D39V [1], first compound 3 µg/mL, partner 0.0625 µg/mL | 0.994
S. pneumoniae D39V [1], first compound 3 µg/mL, partner 0.125 µg/mL | 0.851
S. pneumoniae D39V [1], first compound 6 µg/mL, partner 0.03125 µg/mL | ≥ 1
S. pneumoniae D39V [1], first compound 6 µg/mL, partner 0.0625 µg/mL | 0.974
S. pneumoniae D39V [1], first compound 6 µg/mL, partner 0.125 µg/mL | 0.891

fitness, S. pneumoniae D39V [1], one replicate
Conditions | first compound 1.5 µg/mL | first compound 3 µg/mL | first compound 6 µg/mL
partner 0.25 µg/mL | 0.18 | 0.249 | 0.372
partner 0.5 µg/mL | 0.0697 | 0.0334 | 0.129

Conditions | Bliss interaction score
B. subtilis 168 | 0.0779
S. aureus DSM 20231 [5] | 0.0505
S. aureus Newman [6] | 0.0613
S. pneumoniae D39V [4] | 0.101

Cc1onc(-c2ccccc2)c1C(=O)N[C@@H]1C(=O)N2[C@@H]1SC(C)(C)[C@@H]2C(=O)O [Oxacillin] + CN[C@H](CC(C)C)C(=O)N[C@H]1C(=O)N[C@@H](CC(N)=O)C(=O)N[C@H]2C(=O)N[C@H]3C(=O)N[C@H](C(=O)N[C@H](C(=O)O)c4cc(O)cc(O)c4-c4cc3ccc4O)[C@H](O)c3ccc(c(Cl)c3)Oc3cc2cc(c3O[C@@H]2O[C@H](CO)[C@@H](O)[C@H](O)[C@H]2O[C@H]2C[C@](C)(N)[C@H](O)[C@H](C)O2)Oc2ccc(cc2Cl)[C@H]1O [Vancomycin]
Conditions | fitness
S. aureus DSM 20231 [2], first compound 0.0156 µg/mL, partner 0.1875 µg/mL | 0.776
S. aureus DSM 20231 [2], first compound 0.0156 µg/mL, partner 0.375 µg/mL | 0.867
S. aureus DSM 20231 [2], first compound 0.0156 µg/mL, partner 0.75 µg/mL | 0.81
S. aureus DSM 20231 [2], first compound 0.0312 µg/mL, partner 0.1875 µg/mL | 0.641
S. aureus DSM 20231 [2], first compound 0.0312 µg/mL, partner 0.375 µg/mL | 0.73
S. aureus DSM 20231 [2], first compound 0.0312 µg/mL, partner 0.75 µg/mL | 0.679
S. aureus DSM 20231 [2], first compound 0.0625 µg/mL, partner 0.1875 µg/mL | 0.519
S. aureus DSM 20231 [2], first compound 0.0625 µg/mL, partner 0.375 µg/mL | 0.516
S. aureus DSM 20231 [2], first compound 0.0625 µg/mL, partner 0.75 µg/mL | 0.564
S. aureus Newman [3], first compound 0.0156 µg/mL, partner 0.1875 µg/mL | 0.785
S. aureus Newman [3], first compound 0.0156 µg/mL, partner 0.375 µg/mL | 0.756
S. aureus Newman [3], first compound 0.0312 µg/mL, partner 0.1875 µg/mL | 0.715
S. aureus Newman [3], first compound 0.0312 µg/mL, partner 0.375 µg/mL | 0.724
S. aureus Newman [3], first compound 0.0312 µg/mL, partner 0.75 µg/mL | 0.712
S. aureus Newman [3], first compound 0.0625 µg/mL, partner 0.1875 µg/mL | 0.652
S. aureus Newman [3], first compound 0.0625 µg/mL, partner 0.375 µg/mL | 0.637
S. pneumoniae D39V [1], first compound 0.01 µg/mL, partner 0.03125 µg/mL | 0.988
S. pneumoniae D39V [1], first compound 0.01 µg/mL, partner 0.0625 µg/mL | 0.906
S. pneumoniae D39V [1], first compound 0.01 µg/mL, partner 0.25 µg/mL | 0.243
S. pneumoniae D39V [1], first compound 0.01 µg/mL, partner 0.5 µg/mL | 0.0401
S. pneumoniae D39V [1], first compound 0.02 µg/mL, partner 0.03125 µg/mL | 0.859
S. pneumoniae D39V [1], first compound 0.02 µg/mL, partner 0.0625 µg/mL | 0.734
S. pneumoniae D39V [1], first compound 0.02 µg/mL, partner 0.25 µg/mL | 0.149
S. pneumoniae D39V [1], first compound 0.02 µg/mL, partner 0.5 µg/mL | 0.0421
S. pneumoniae D39V [1], first compound 0.04 µg/mL, partner 0.03125 µg/mL | 0.271
S. pneumoniae D39V [1], first compound 0.04 µg/mL, partner 0.0625 µg/mL | 0.18
S. pneumoniae D39V [1], first compound 0.04 µg/mL, partner 0.125 µg/mL | 0.108
S. pneumoniae D39V [1], first compound 0.04 µg/mL, partner 0.25 µg/mL | 0.101
S. pneumoniae D39V [1], first compound 0.04 µg/mL, partner 0.5 µg/mL | 0.056

Conditions | Bliss interaction score
B. subtilis 168 | -0.0574
S. aureus DSM 20231 [5] | -0.0751
S. aureus Newman [6] | -0.0696
S. pneumoniae D39V [4] | -0.302

CC[C@H]1OC(=O)[C@H](C)[C@@H](O[C@H]2C[C@@](C)(OC)[C@@H](O)[C@H](C)O2)[C@H](C)[C@@H](O[C@@H]2O[C@H](C)C[C@H](N(C)C)[C@H]2O)[C@](C)(O)C[C@@H](C)CN(C)[C@H](C)[C@@H](O)[C@]1(C)O [Azithromycin] + CN[C@H](CC(C)C)C(=O)N[C@H]1C(=O)N[C@@H](CC(N)=O)C(=O)N[C@H]2C(=O)N[C@H]3C(=O)N[C@H](C(=O)N[C@H](C(=O)O)c4cc(O)cc(O)c4-c4cc3ccc4O)[C@H](O)c3ccc(c(Cl)c3)Oc3cc2cc(c3O[C@@H]2O[C@H](CO)[C@@H](O)[C@H](O)[C@H]2O[C@H]2C[C@](C)(N)[C@H](O)[C@H](C)O2)Oc2ccc(cc2Cl)[C@H]1O [Vancomycin]
fitness
Conditions | partner 0.1875 µg/mL | partner 0.375 µg/mL | partner 0.75 µg/mL
S. aureus DSM 20231 [2], first compound 0.125 µg/mL | 0.846 | 0.875 | 0.898
S. aureus DSM 20231 [2], first compound 0.25 µg/mL | 0.819 | 0.874 | 0.829
S. aureus Newman [3], first compound 0.125 µg/mL | 0.909 | 0.906 | 0.882
S. aureus Newman [3], first compound 0.25 µg/mL | 0.855 | 0.893 | 0.862

Conditions | Bliss interaction score
B. subtilis 168 | -0.0288
S. aureus DSM 20231 [5] | 0.0943
S. aureus Newman [6] | -0.104
S. pneumoniae D39V [4] | -0.0427

C[n+]1ccc(-c2cc[n+](C)cc2)cc1 [Paraquat] + Cn1nnc(-c2ccc(-c3ccc(N4C[C@H](CO)OC4=O)cc3F)cn2)n1 [Tedizolid]
fitness
Conditions | partner 0.03125 µg/mL | partner 0.0625 µg/mL | partner 0.125 µg/mL | partner 0.25 µg/mL
S. aureus DSM 20231 [2], first compound 1.25 µg/mL | – | 0.866 | 0.644 | 0.117
S. aureus DSM 20231 [2], first compound 2.5 µg/mL | – | 0.803 | 0.583 | 0.161
S. aureus DSM 20231 [2], first compound 5 µg/mL | – | 0.836 | 0.588 | 0.137
S. aureus Newman [3], first compound 1.25 µg/mL | – | 0.855 | 0.762 | –
S. aureus Newman [3], first compound 2.5 µg/mL | – | 0.902 | 0.805 | –
S. aureus Newman [3], first compound 5 µg/mL | – | 0.843 | – | –
S. pneumoniae D39V [1], first compound 1.5 µg/mL | 0.926 | 0.948 | 0.86 | –
S. pneumoniae D39V [1], first compound 3 µg/mL | 0.956 | 0.951 | 0.846 | –
S. pneumoniae D39V [1], first compound 6 µg/mL | 0.932 | 0.934 | 0.817 | –

fitness, S. pneumoniae D39V [1], one replicate
Conditions | first compound 1.5 µg/mL | first compound 3 µg/mL | first compound 6 µg/mL
partner 0.25 µg/mL | 0.796 | 0.786 | 0.808
partner 0.5 µg/mL | 0.626 | 0.603 | 0.602

Conditions | Bliss interaction score
B. subtilis 168 | 0.075
S. aureus DSM 20231 [5] | 0.0784
S. aureus Newman [6] | -0.041
S. pneumoniae D39V [4] | -0.0684
